Data on two compounds can be found in BindingDB's records for patent US20240025884 (Dong-A St Co., 2024).

The target of this assay is eIF-2-alpha kinase GCN2 (Homo sapiens, UniProt Q9P2K8). Nature of the assay: Biochemical Assay. The procedure:
384-well (Greiner #784075) (or 1536-well [Greiner #782075]) plates containing 60 nl (or 20 nl for 1536-well) of compound in 100% DMSO (10 concentrations serially diluted 3.16-fold) were prepared. Two copies of plates were used one for the GCN2 assay and a second for an artifact plate. Working reagents were prepared as follows reaction buffer: Tris pH 7.5 20 mM, MgCl2 5 mM, DTT 1 mM, Brij-35 0.005%, EGTA 0.5 mM in water; 2 enzyme solution: GCN2 (produced in-house) 1.6 nM in reaction buffer; 2 substrate solution: GFP-eIFS1 (Thermo Fisher Scientific, PV4809) 50 nM, ATP 0.2 mM, tRNA 0.4 mg/ml in reaction buffer; p-GFP-eIF2S1 (artifact) solution: p-GFP-eIFS1 (produced by incubation of 100 nM GFP-eIF2S1 in reaction buffer with 100 uM ATP and 1 nM PERK KD enzyme for 3 hr at room temperature) 2 nM in reaction buffer; 3 stop/antibody solution: p-GFP-EIF2S1 Th-Ab (Thermo Fisher Scientific, PV4816) 6 nM, AZ13933939 3 uM, BSA 3% in reaction buffer. Reagents were loaded onto a liquid dispenser (Certus FLEX, Trajan Scientific and Medical), and 3 ul (1 ul for 1536-well) of 2 enzyme solution, followed by 3 ul (1 ul for 1536-well) of 2 substrate solution was added to the plates. When small numbers of plates were processed, the enzyme solution was added first to all plates, then the valve used for the substrate solution was primed immediately prior to use. […]

Sequence of eIF-2-alpha kinase GCN2 (Q9P2K8 whole entry): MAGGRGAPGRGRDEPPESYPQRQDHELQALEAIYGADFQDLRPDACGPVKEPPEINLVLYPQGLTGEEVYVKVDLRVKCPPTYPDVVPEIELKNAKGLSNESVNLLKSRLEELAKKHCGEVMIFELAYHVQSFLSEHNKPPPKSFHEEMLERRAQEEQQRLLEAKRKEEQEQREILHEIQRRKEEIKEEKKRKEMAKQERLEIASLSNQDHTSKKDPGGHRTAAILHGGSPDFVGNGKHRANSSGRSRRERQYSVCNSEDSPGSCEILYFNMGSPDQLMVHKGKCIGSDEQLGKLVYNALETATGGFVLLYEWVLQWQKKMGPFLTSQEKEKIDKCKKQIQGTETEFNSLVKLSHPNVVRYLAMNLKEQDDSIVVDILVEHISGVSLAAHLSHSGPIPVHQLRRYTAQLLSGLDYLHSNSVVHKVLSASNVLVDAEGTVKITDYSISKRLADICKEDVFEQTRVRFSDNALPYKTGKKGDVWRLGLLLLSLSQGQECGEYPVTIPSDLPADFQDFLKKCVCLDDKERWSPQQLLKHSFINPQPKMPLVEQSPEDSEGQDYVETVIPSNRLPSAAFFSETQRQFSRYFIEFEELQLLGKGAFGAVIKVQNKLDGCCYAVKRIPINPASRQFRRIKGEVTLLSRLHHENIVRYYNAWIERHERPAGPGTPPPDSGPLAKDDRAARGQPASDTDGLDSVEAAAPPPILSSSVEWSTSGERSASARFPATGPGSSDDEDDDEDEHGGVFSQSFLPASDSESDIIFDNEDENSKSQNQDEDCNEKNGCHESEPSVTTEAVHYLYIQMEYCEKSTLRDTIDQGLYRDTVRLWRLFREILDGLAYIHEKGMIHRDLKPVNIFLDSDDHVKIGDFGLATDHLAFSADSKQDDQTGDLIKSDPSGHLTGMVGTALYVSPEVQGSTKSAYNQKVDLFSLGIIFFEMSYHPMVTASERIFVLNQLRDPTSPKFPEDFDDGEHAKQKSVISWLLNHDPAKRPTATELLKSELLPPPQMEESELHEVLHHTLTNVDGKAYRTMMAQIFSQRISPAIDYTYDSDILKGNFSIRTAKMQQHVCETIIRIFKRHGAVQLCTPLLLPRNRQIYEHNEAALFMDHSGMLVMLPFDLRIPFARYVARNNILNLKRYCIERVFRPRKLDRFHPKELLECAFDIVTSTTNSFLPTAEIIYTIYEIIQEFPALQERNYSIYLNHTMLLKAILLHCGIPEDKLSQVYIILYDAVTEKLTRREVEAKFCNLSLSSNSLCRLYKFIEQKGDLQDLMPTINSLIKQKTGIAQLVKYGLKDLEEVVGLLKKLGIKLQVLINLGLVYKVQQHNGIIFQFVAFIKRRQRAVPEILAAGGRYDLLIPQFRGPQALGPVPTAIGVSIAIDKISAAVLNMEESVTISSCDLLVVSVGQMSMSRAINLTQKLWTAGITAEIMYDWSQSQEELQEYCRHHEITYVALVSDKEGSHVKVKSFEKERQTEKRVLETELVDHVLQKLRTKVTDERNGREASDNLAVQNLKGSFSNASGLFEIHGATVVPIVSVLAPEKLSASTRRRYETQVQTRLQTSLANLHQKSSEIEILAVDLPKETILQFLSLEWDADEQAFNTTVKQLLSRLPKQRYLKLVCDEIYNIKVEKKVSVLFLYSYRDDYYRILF

Take `Cc1cc(Nc2ncc(Cl)c(-c3c[nH]c4c(NC(=O)CN5CC[C@H](Oc6ccnc(NC7CC7)n6)C5)cccc34)n2)nn1C` [US20240025884, Example 10]: the IC50 was less than 10 nM.

`Cc1cnc(Nc2cc(C)n(C)n2)nc1-c1c[nH]c2c(N3Cc4c(/C=C/C(=O)NC(C)C)cccc4C3=O)cccc12` [US20240025884, Example 370] showed an IC50 of less than 10 nM.

A word on the IC50: it is the concentration that gives 50% inhibition. Higher therefore signals weaker potency.
